Assay results from patent publication US8247211B2, “Glycopeptide antibiotics” (American Cyanamid Company, priority 2001, dated 2012).
Converted amounts (≈) assume the structure as drawn.

How the values were obtained:
Experiment in all cases: In vitro antibacterial evaluation: minimum inhibitory concentration (MIC), broth dilution method
Format in all cases: cell-based
Escherichia coli = conditions: broth dilution, 18 hours at 35° C.
Staphylococcus sp. = conditions: strain SMITH GC 4543; broth dilution, 18 hours at 35° C.
Procedure, shortened: (§1)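 NCCLS M7-A2 broth dilution with Mueller-Hinton II, testing 64-0.06 μg/mL antibiotic against 5×10^5 CFU/mL inocula. Test strains include recent methicillin-, penicillin- or vancomycin-resistant clinical isolates. MIC is the lowest concentration preventing growth.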

Streptococcus sp. = conditions: broth dilution, 18 hours at 35° C.
Procedure, shortened: as §1

Enterococcus sp. = conditions: broth dilution, 18 hours at 35° C.
Procedure, shortened: as §1

- MIC Escherichia coli (ATCC 25922) (Escherichia coli): 16 µg/mL (≈ 14.3 µM)
- MIC Escherichia coli (GC 4559) (Escherichia coli): 16 µg/mL (≈ 14.3 µM)
- MIC Escherichia coli (GC 4560) (Escherichia coli): 4 µg/mL (≈ 3.59 µM)
- MIC Staphylococcus aureus-SMITH (GC 4543) (Staphylococcus sp.): 8 µg/mL (≈ 7.17 µM)
- MIC Streptococcus agalactiae (GC 4564) (Streptococcus sp.; Streptococcus agalactiae (GC 4564)): 32 µg/mL (≈ 28.7 µM)
- MIC Streptococcus pneumoniae (ATCC 6301) (Streptococcus sp.; Streptococcus pneumoniae (ATCC 6301)): 32 µg/mL (≈ 28.7 µM)
- MIC Streptococcus pneumoniae (GC 1894) (Streptococcus sp.; Streptococcus pneumoniae (GC 1894)): 32 µg/mL (≈ 28.7 µM)
- MIC Streptococcus pneumoniae (GC 4565) (Streptococcus sp.; Streptococcus pneumoniae (GC 4565)): 32 µg/mL (≈ 28.7 µM)
- MIC Streptococcus pyogenes (GC 4563) (Streptococcus sp.; Streptococcus pyogenes (GC 4563)): 16 µg/mL (≈ 14.3 µM)
- MIC Streptococcus agalactiae (GC 4564) (Streptococcus sp.): 32 µg/mL (≈ 28.7 µM)
- MIC Streptococcus pneumoniae (ATCC 6301) (Streptococcus sp.): 32 µg/mL (≈ 28.7 µM)
- MIC Streptococcus pneumoniae (GC 1894) (Streptococcus sp.): 32 µg/mL (≈ 28.7 µM)
- MIC Streptococcus pneumoniae (GC 4565) (Streptococcus sp.): 32 µg/mL (≈ 28.7 µM)
- MIC Streptococcus pyogenes (GC 4563) (Streptococcus sp.): 16 µg/mL (≈ 14.3 µM)
- MIC Enterococcus avium (GC 4558) (Enterococcus sp.; Enterococcus avium (GC 4558)): 16 µg/mL (≈ 14.3 µM)
- MIC Enterococcus faecalis (ATCC 29212) (Enterococcus sp.; Enterococcus faecalis (ATCC 29212)): 32 µg/mL (≈ 28.7 µM)
- MIC Enterococcus faecalis (GC 2242) (Enterococcus sp.; Enterococcus faecalis (GC 2242)): 32 µg/mL (≈ 28.7 µM)
- MIC Enterococcus faecalis (GC 2691) (Enterococcus sp.; Enterococcus faecalis (GC 2691)): 32 µg/mL (≈ 28.7 µM)
- MIC Enterococcus faecalis (GC 3059) (Enterococcus sp.; Enterococcus faecalis (GC 3059)): 64 µg/mL (≈ 57.4 µM)
- MIC Enterococcus faecalis (GC 4552) (Enterococcus sp.; Enterococcus faecalis (GC 4552)): 64 µg/mL (≈ 57.4 µM)
- MIC Enterococcus faecalis (GC 4553) (Enterococcus sp.; Enterococcus faecalis (GC 4553)): 16 µg/mL (≈ 14.3 µM)
- MIC Enterococcus faecalis (GC 4554) (Enterococcus sp.; Enterococcus faecalis (GC 4554)): 32 µg/mL (≈ 28.7 µM)
- MIC Enterococcus faecalis (GC 6189) (Enterococcus sp.; Enterococcus faecalis (GC 6189)): 32 µg/mL (≈ 28.7 µM)
- MIC Enterococcus faecium (GC 2243) (Enterococcus sp.; Enterococcus faecium (GC 2243)): 16 µg/mL (≈ 14.3 µM)
- MIC Enterococcus faecium (GC 4556) (Enterococcus sp.; Enterococcus faecium (GC 4556)): 64 µg/mL (≈ 57.4 µM)
- MIC Enterococcus faecium (GC 4557) (Enterococcus sp.; Enterococcus faecium (GC 4557)): 8 µg/mL (≈ 7.17 µM)
- MIC Enterococcus avium (GC 4558) (Enterococcus sp.): 16 µg/mL (≈ 14.3 µM)
- MIC Enterococcus faecalis (ATCC 29212) (Enterococcus sp.): 32 µg/mL (≈ 28.7 µM)
- MIC Enterococcus faecalis (GC 2242) (Enterococcus sp.): 32 µg/mL (≈ 28.7 µM)
- MIC Enterococcus faecalis (GC 2691) (Enterococcus sp.): 32 µg/mL (≈ 28.7 µM)
- MIC Enterococcus faecalis (GC 3059) (Enterococcus sp.): 64 µg/mL (≈ 57.4 µM)
- MIC Enterococcus faecalis (GC 4552) (Enterococcus sp.): 64 µg/mL (≈ 57.4 µM)
- MIC Enterococcus faecalis (GC 4553) (Enterococcus sp.): 16 µg/mL (≈ 14.3 µM)
- MIC Enterococcus faecalis (GC 4554) (Enterococcus sp.): 32 µg/mL (≈ 28.7 µM)
- MIC Enterococcus faecalis (GC 6189) (Enterococcus sp.): 32 µg/mL (≈ 28.7 µM)
- MIC Enterococcus faecium (GC 2243) (Enterococcus sp.): 16 µg/mL (≈ 14.3 µM)
- MIC Enterococcus faecium (GC 4556) (Enterococcus sp.): 64 µg/mL (≈ 57.4 µM)
- MIC Enterococcus faecium (GC 4557) (Enterococcus sp.): 8 µg/mL (≈ 7.17 µM)
Structure (SMILES): CC(c1ccccc1)C1NC(=O)CNC(=O)C(CO)NC(=O)C(C(O)C2CNC(=N)N2C2OC(CO)C(O)C(O)C2O)NC(=O)C(C(O)C2CNC(=N)N2)NC(=O)C(Cc2ccc3oc(-c4ccc(N(C)C)cc4)nc3c2)NC1=O (stereo not drawn) [Example 29, Cyclo[3-[2-[4-(dimethylamino)phenyl]-1,3-benzoxazol-5-yl]alanyl-3-(2-iminoimidazolidin-4-yl)-seryl-3-(3-hexopyranosyl-2-iminoimidazolidin-4-yl)serylserylglycyl-β-methylphenyl-alanyl]]
